Experimental data from patent US11384075B2, “Quinolinone compounds” (Janssen Pharmaceutica NV, priority 2017, dated 2022).

Tests used:
[1] = target: T1, NIH/3T3 cells overexpressing FGFR3 WT-TACC3 fusion protein (Homo sapiens, UniProt P22607); experiment: NIH/3T3 FGFR3 WT-TACC3 cell proliferation assay; assay type: cell-based; settings: 72-hr incubation, CellTiter Glo, starting with 10 μM; read-out: NIH/3T3 FGFR3 WT-TACC3 CTG (IC50)
T1 construct: NIH/3T3 FGFR3 WT-TACC3 CTG (IC50); other: 72-hr incubation, CellTiter Glo, starting with 10 μM; fused on or other part: Q9Y6A5 (Transforming acidic coiled-coil-containing protein 3)
In short: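 Cells seeded overnight, then exposed 72 h at 37 °C to compound in 9-point 4-fold dilutions from 10 μM (0.1% DMSO final). Viability read by CellTiter-Glo luminescence, normalized to survival %; IC50, pIC50 and Hill slope from concentration-response fit.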

[2] = target: T2, human FGFR3 wild type enzyme (cytoplasmic domain) (Homo sapiens, UniProt P22607); experiment: FGFR3 wild type mobility shift assay (enzymatic assay); assay type: biochemical; settings: 75 μM ATP, 50 minutes at 30° C., Caliper EZ reader II
T2 construct: human FGFR3 wild type enzyme (cytoplasmic domain, from Carna Biosciences); purchased Carna Biosciences
In short: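 Cytoplasmic domain of human wild-type FGFR3 (0.04 ng/μL) with 75 μM ATP and 1 μM FL-peptide 30, pH 7.4 HEPES/MgCl2 buffer, 1% DMSO, 50 min at 30 °C, EDTA-stopped. Substrate-product conversion read by mobility shift. IC50, pIC50 and Hill slope from 10-point 4-fold dilutions starting at 10 μM.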

[3] = system: NIH/3T3 cells transfected with the same control vector; experiment: NIH/3T3 mock cell proliferation assay (counter assay, general toxicity); assay type: cell-based; settings: Mus musculus, NIH3T3, 72 h, 72-hr incubation, CellTiter Glo, starting with 30 μM; counter assay for general toxicity; read-out: NIH/3T3 MOCK CTG (IC50)
In short: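 Control-vector NIH/3T3 cells, 30,000/well in DMEM with 10% FBS, exposed 72 h at 37 °C to compound (9 points, 3-fold from 30 μM, 0.3% DMSO). CellTiter-Glo luminescence normalized to survival %; IC50, pIC50 and Hill slope from concentration-response fit.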

[4] = target: T3, human FGFR3 V555L enzyme (cytoplasmic domain carrying V555L mutation) (Homo sapiens, UniProt P22607, V555L); experiment: FGFR3 V555L mobility shift assay (enzymatic assay); assay type: biochemical; settings: 40 μM ATP, 50 minutes at 30° C., Caliper EZ reader II
T3 construct: human FGFR3 V555L enzyme (cytoplasmic domain carrying V555L mutation, from Carna Biosciences); purchased Carna Biosciences
Description: FGFR3 V555L Mobility Shift Assay (Enzymatic Assay)
In a final reaction volume of 25 μL, 0.04 ng/μL human FGFR3 V555L enzyme (cytoplasmic domain carrying V555L mutation, from Carna Biosciences) was incubated with 40 μM ATP, 1 μM FL-peptide 30 substrate and 250 nL of testing compound (1% DMSO final) in assay buffer (100 mM HEPES pH 7.4, 10 mM MgCl2, 0.003% Brij35, 1 mM DTT). After incubation for 50 minutes at 30° C. the reaction was stopped with 10 μL of 0.5M EDTA pH 8.0, and then 25 μL of reaction mixture was transferred to reading plate and measured on Caliper EZ reader II. The substrate-product conversion rate was used as raw data for normalization and concentration-response curve (10 dose points with 4× serial dilution, starting with 10 μM) was plotted using Prism to calculate IC50 (M), pIC50 (−log IC50) and HillSlope value.

[5] = target: T4, human FGFR3 V555M enzyme (cytoplasmic domain carrying V555M mutation) (Homo sapiens, UniProt P22607, V555M); experiment: FGFR3 V555M mobility shift assay (enzymatic assay); assay type: biochemical; settings: 30 μM ATP, 45 minutes at 30° C., Caliper EZ reader II
T4 construct: human FGFR3 V555M enzyme (cytoplasmic domain carrying V555M mutation, from Carna Biosciences); purchased Carna Biosciences
In short: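 Cytoplasmic-domain FGFR3 V555M (0.04 ng/μL) with 30 μM ATP and 1 μM FL-peptide 30 in HEPES pH 7.4/MgCl2/Brij35/DTT, 1% DMSO, 45 min at 30 °C, EDTA-stopped. Mobility-shift read of substrate-product conversion; 10-point 4× dilution from 10 μM fitted for IC50/pIC50.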

[6] = target: T5, NIH/3T3 cells overexpressing FGFR3 V555M-TACC3 fusion protein (Homo sapiens, UniProt P22607, V555M, cells depend on it); experiment: NIH/3T3 FGFR3 V555M-TACC3 cell proliferation assay; assay type: cell-based; settings: 72-hr incubation, CellTiter Glo, starting with 10 μM; read-out: NIH/3T3 FGFR3 V555M-TACC3 CTG (IC50)
T5 construct: NIH/3T3 FGFR3 V555M-TACC3 CTG (IC50); other: 72-hr incubation, CellTiter Glo, starting with 10 μM; fused on or other part: Q9Y6A5 (Transforming acidic coiled-coil-containing protein 3)
In short: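 NIH/3T3 cells overexpressing FGFR3 V555M-TACC3 fusion, 30,000/well in DMEM/10% FBS, treated for 72 h at 37 °C with 9 doses (4× dilutions from 10 μM top, 0.1% DMSO). CellTiter-Glo luminescence normalised to % survival; IC50, pIC50 and Hill slope from concentration-response fits.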

T3 sequence (P22607 397-806 V555L limits assumed): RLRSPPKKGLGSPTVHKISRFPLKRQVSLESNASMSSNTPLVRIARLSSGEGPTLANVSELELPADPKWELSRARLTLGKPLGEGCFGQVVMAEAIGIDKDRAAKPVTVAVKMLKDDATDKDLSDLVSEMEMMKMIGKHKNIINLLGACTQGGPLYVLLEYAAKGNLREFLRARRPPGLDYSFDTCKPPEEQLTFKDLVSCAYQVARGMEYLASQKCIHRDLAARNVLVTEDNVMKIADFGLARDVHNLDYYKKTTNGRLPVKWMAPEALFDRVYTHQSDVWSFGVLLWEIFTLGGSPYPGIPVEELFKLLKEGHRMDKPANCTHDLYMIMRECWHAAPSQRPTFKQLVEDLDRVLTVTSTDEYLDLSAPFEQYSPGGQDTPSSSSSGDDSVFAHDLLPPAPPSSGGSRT
T2 sequence (P22607 397-806 limits assumed): as the sequence (P22607 397-806 V555L limits assumed) above, with L159V counted along it
T1 sequence (P22607 whole entry, change not shown, the tested form may be a part): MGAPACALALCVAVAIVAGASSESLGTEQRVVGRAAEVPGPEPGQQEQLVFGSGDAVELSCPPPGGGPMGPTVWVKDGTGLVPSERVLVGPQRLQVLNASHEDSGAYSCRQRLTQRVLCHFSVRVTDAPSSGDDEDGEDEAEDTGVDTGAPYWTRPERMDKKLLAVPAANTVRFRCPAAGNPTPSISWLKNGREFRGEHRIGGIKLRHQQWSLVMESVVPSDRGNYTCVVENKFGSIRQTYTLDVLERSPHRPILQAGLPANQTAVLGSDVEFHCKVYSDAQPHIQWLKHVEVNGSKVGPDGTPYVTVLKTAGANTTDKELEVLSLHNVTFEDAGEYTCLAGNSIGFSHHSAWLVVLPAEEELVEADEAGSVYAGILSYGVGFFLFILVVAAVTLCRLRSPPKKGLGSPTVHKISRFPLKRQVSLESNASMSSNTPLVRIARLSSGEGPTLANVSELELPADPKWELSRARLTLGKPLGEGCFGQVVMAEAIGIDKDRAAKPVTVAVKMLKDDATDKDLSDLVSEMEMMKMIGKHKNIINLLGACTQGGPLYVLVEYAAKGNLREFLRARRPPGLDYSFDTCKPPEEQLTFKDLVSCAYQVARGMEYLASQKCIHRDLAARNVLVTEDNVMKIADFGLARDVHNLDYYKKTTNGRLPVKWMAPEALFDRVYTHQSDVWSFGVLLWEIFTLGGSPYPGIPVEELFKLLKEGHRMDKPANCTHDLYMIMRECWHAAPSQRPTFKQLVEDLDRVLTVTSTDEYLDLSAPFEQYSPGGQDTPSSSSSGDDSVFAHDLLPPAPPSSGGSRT
T5 sequence (P22607 whole entry V555M, the tested form may be a part): as the sequence (P22607 whole entry, change not shown, the tested form may be a part) above, with V555M counted along it
T4 sequence (P22607 397-806 V555M limits assumed): as the sequence (P22607 397-806 V555L limits assumed) above, with L159M counted along it

Row | Compound | GI50 [1] | IC50 [2] | IC50 [4] | IC50 [5] | GI50 [6] | IC50 [3]
1 | O=c1[nH]c2ccccc2c(NC(c2ncccn2)C2CC2)c1-c1nc2ccc(N3CCOCC3)cc2[nH]1 (single isomer, unassigned) [Compound 33a, (S*)-4-((cyclopropyl(pyrimidin-2-yl)methyl)amino)-3-(6-morpholino-1H-benzo[d]imidazol-2-yl)quinolin-2(1H)-one] | 9.24 nM | 0.595 nM | 0.63 nM | 0.237 nM | 6.41 nM | 1080 nM
2 | C[C@H](Nc1c(-c2nc3ccc(N4CCN(C)CC4)cc3[nH]2)c(=O)[nH]c2cc(F)ccc12)c1ccccn1 [Compound 63, (S)-7-Fluoro-3-(6-(4-methylpiperazin-1-yl)-1H-benzo[d]imidazol-2-yl)-4-((1-(pyridin-2-yl)ethyl)amino)quinolin-2(1H)-one] | – | 0.709 nM | 1.39 nM | 1.65 nM | 51.4 nM | 637 nM
3 | C[C@H](Nc1c(-c2nc3ccc(N4CCN(C)CC4)cc3[nH]2)c(=O)[nH]c2ccccc12)c1ccccn1 [Compound 65, (S)-3-(6-(4-methylpiperazin-1-yl)-1H-benzo[d]imidazol-2-yl)-4-((1-(pyridin-2-yl)-ethyl)amino)quinolin-2(1H)-one] | 5.93 nM | 0.377 nM | 0.246 nM | 0.193 nM | 8.19 nM | 165 nM

More lines, main results first:

Row | GI50 [1] | IC50 [2] | IC50 [4] | IC50 [5] | GI50 [6] | Compound | IC50 [3]
4 | 16.5 nM | 0.368 nM | 0.364 nM | 0.171 nM | 5.75 nM | CC(C)C(Nc1c(-c2nc3ccc(N4CCOCC4)cc3[nH]2)c(=O)[nH]c2ccccc12)c1ncccn1 (single isomer, unassigned) [Compound 32a, (S*)-4-((2-methyl-1-(pyrimidin-2-yl)propyl)amino)-3-(6-morpholino-1H-benzo[d]imidazol-2-yl)quinolin-2(1H)-one] | 2610 nM
5 | – | 0.128 nM | 0.135 nM | 0.0676 nM | 10.7 nM | CC(C)N1CCN(c2ccc3nc(-c4c(N[C@@H](C)c5ccccn5)c5ccccc5[nH]c4=O)[nH]c3c2)CC1 [Compound 56, (S)-3-(6-(4-isopropylpiperazin-1-yl)-1H-benzo[d]imidazol-2-yl)-4-((1-(pyridin-2-yl)-ethyl)amino)quinolin-2(1H)-one] | 770 nM
6 | 7.19 nM | 0.281 nM | 0.617 nM | 0.177 nM | 5.34 nM | CCC(Nc1c(-c2nc3ccc(N4CCOCC4)cc3[nH]2)c(=O)[nH]c2ccccc12)c1ncccn1 (single isomer, unassigned) [Compound 30a, (S*)-3-(6-morpholino-1H-benzo[d]imidazol-2-yl)-4-((1-(pyrimidin-2-yl)propyl)amino)quinolin-2(1H)-one] | 2910 nM
